Data from patent publication US9695155B2, “Herbicidal substituted pyrimidinyloxy benzene compounds” (E. I. DU PONT DE NEMOURS AND COMPANY, priority 2013, dated 2017).

Columns and labels:
Assay in all cases: Test C preemergence
ragweed = format: in vivo, Ambrosia elatior
In short: (§1)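 Visual ratings on a 0–100 scale (100 = complete control) were made versus untreated controls after 13–15 greenhouse days. Chemicals in a surfactant-containing non-phytotoxic solvent were applied either preemergence to seeds in loam–sand soil or postemergence to 1- to 4-leaf plants 2–18 cm tall.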

blackgrass = format: in vivo, Alopecurus myosuroides
In short: as §1

pigweed = format: in vivo, Amaranthus retroflexus
In short: as §1

waterhemp = format: in vivo, Amaranthus rudis
In short: as §1

lambsquarters = format: in vivo, Chenopodium album
In short: as §1

morningglory = format: in vivo, Ipomoea coccinea
In short: as §1

large (Lg) crabgrass = format: in vivo, Digitaria sanguinalis
In short: as §1

oilseed rape = format: in vivo, Brassica napus
In short: as §1

galium = format: in vivo, Galium aparine
In short: as §1

soybean = format: in vivo, Glycine max
In short: as §1

barnyardgrass = format: in vivo, Echinochloa crus-galli
In short: as §1

velvetleaf = format: in vivo, Abutilon theophrasti
In short: as §1

giant foxtail = format: in vivo, Setaria faberii
In short: as §1

[1] = 16 g ai/ha, preemergence, scale 0 to 100 (0 no effect, 100 complete control)
[2] = 31 g ai/ha, preemergence, scale 0 to 100 (0 no effect, 100 complete control)
[3] = 125 g ai/ha, preemergence, scale 0 (no effect) to 100 (complete control)
[4] = Preemergence, 62 g ai/ha, scale 0 to 100, 0 no effect, 100 complete control

N#Cc1cccc(Oc2ncc(Cl)cn2)c1-n1cc(OCC(F)(F)F)cn1 [Compound 274, 3-[(5-chloro-2-pyrimidinyl)oxy]-2-[4-(2,2,2-trifluoroethoxy)-1H-pyrazol-1-yl]benzonitrile]
pest or weed control at 16 g/ha (ragweed; Ambrosia artemisiifolia, pre-emergence, 16 g ai/ha, preemergence, scale 0 to 100 (0 no effect, 100 complete control), read-out: Ragweed plant response rating): 10%
pest or weed control at 125 g/ha (ragweed; Ambrosia artemisiifolia, pre-emergence, 125 g ai/ha, preemergence, scale 0 (no effect) to 100 (complete control), read-out: Ragweed plant response rating): 75%
pest or weed control at 62 g/ha (ragweed; Ambrosia artemisiifolia, pre-emergence, Preemergence, 62 g ai/ha, scale 0 to 100, 0 no effect, 100 complete control, read-out: Plant response rating, Ragweed): 35%
pest or weed control at 16 g/ha (blackgrass; Alopecurus myosuroides, pre-emergence, 16 g ai/ha, preemergence, scale 0 to 100 (0 no effect, 100 complete control), read-out: Blackgrass plant response rating): 50%
pest or weed control at 125 g/ha (blackgrass; Alopecurus myosuroides, pre-emergence, 125 g ai/ha, preemergence, scale 0 (no effect) to 100 (complete control), read-out: Blackgrass plant response rating): 90%
pest or weed control at 62 g/ha (blackgrass; Alopecurus myosuroides, pre-emergence, Preemergence, 62 g ai/ha, scale 0 to 100, 0 no effect, 100 complete control, read-out: Plant response rating, Blackgrass): 90%
pest or weed control at 16 g/ha (pigweed; Amaranthus retroflexus, pre-emergence, 16 g ai/ha, preemergence, scale 0 to 100 (0 no effect, 100 complete control), read-out: Pigweed plant response rating): 100%
pest or weed control at 125 g/ha (pigweed; Amaranthus retroflexus, pre-emergence, 125 g ai/ha, preemergence, scale 0 (no effect) to 100 (complete control), read-out: Pigweed plant response rating): 100%
pest or weed control at 62 g/ha (pigweed; Amaranthus retroflexus, pre-emergence, Preemergence, 62 g ai/ha, scale 0 to 100, 0 no effect, 100 complete control, read-out: Plant response rating, Pigweed): 100%
pest or weed control at 16 g/ha (waterhemp; Amaranthus tuberculatus, pre-emergence, 16 g ai/ha, preemergence, scale 0 to 100 (0 no effect, 100 complete control), read-out: Waterhemp plant response rating): 100%
pest or weed control at 125 g/ha (waterhemp; Amaranthus tuberculatus, pre-emergence, 125 g ai/ha, preemergence, scale 0 (no effect) to 100 (complete control), read-out: Waterhemp plant response rating): 100%
pest or weed control at 62 g/ha (waterhemp; Amaranthus tuberculatus, pre-emergence, Preemergence, 62 g ai/ha, scale 0 to 100, 0 no effect, 100 complete control, read-out: Plant response rating, Waterhemp): 100%
pest or weed control at 16 g/ha (lambsquarters; Chenopodium album, pre-emergence, 16 g ai/ha, preemergence, scale 0 to 100 (0 no effect, 100 complete control), read-out: Lambsquarters plant response rating): 100%
pest or weed control at 125 g/ha (lambsquarters; Chenopodium album, pre-emergence, 125 g ai/ha, preemergence, scale 0 (no effect) to 100 (complete control), read-out: Lambsquarters plant response rating): 98%
pest or weed control at 62 g/ha (lambsquarters; Chenopodium album, pre-emergence, Preemergence, 62 g ai/ha, scale 0 to 100, 0 no effect, 100 complete control, read-out: Plant response rating, Lambsquarters): 100%
pest or weed control at 16 g/ha (morningglory; Ipomoea, pre-emergence, 16 g ai/ha, preemergence, scale 0 to 100 (0 no effect, 100 complete control), read-out: Morningglory plant response rating): 35%
pest or weed control at 125 g/ha (morningglory; Ipomoea, pre-emergence, 125 g ai/ha, preemergence, scale 0 (no effect) to 100 (complete control), read-out: Morningglory plant response rating): 100%
pest or weed control at 62 g/ha (morningglory; Ipomoea, pre-emergence, Preemergence, 62 g ai/ha, scale 0 to 100, 0 no effect, 100 complete control, read-out: Plant response rating, Morningglory): 100%
pest or weed control at 16 g/ha (large (Lg) crabgrass; Digitaria sanguinalis, pre-emergence, 16 g ai/ha, preemergence, scale 0 to 100 (0 no effect, 100 complete control), read-out: Crabgrass, Large plant response rating): 100%
pest or weed control at 125 g/ha (large (Lg) crabgrass; Digitaria sanguinalis, pre-emergence, 125 g ai/ha, preemergence, scale 0 (no effect) to 100 (complete control), read-out: Crabgrass, Large plant response rating): 100%
pest or weed control at 62 g/ha (large (Lg) crabgrass; Digitaria sanguinalis, pre-emergence, Preemergence, 62 g ai/ha, scale 0 to 100, 0 no effect, 100 complete control, read-out: Plant response rating, Crabgrass, Large): 100%
plant injury at 16 g/ha (oilseed rape; Brassica napus, pre-emergence, 16 g ai/ha, preemergence, scale 0 to 100 (0 no effect, 100 complete control), read-out: Oilseed Rape plant response rating): 80%
plant injury at 125 g/ha (oilseed rape; Brassica napus, pre-emergence, 125 g ai/ha, preemergence, scale 0 (no effect) to 100 (complete control), read-out: Oilseed Rape plant response rating): 95%
plant injury at 62 g/ha (oilseed rape; Brassica napus, pre-emergence, Preemergence, 62 g ai/ha, scale 0 to 100, 0 no effect, 100 complete control, read-out: Plant response rating, Oilseed Rape): 95%
pest or weed control at 16 g/ha (galium; Galium, pre-emergence, 16 g ai/ha, preemergence, scale 0 to 100 (0 no effect, 100 complete control), read-out: Galium plant response rating): 90%
pest or weed control at 125 g/ha (galium; Galium, pre-emergence, 125 g ai/ha, preemergence, scale 0 (no effect) to 100 (complete control), read-out: Galium plant response rating): 98%
pest or weed control at 62 g/ha (galium; Galium, pre-emergence, Preemergence, 62 g ai/ha, scale 0 to 100, 0 no effect, 100 complete control, read-out: Plant response rating, Galium): 98%
plant injury at 16 g/ha (soybean; Glycine max, pre-emergence, 16 g ai/ha, preemergence, scale 0 to 100 (0 no effect, 100 complete control), read-out: Soybean plant response rating): 35%
plant injury at 125 g/ha (soybean; Glycine max, pre-emergence, 125 g ai/ha, preemergence, scale 0 (no effect) to 100 (complete control), read-out: Soybean plant response rating): 98%
plant injury at 62 g/ha (soybean; Glycine max, pre-emergence, Preemergence, 62 g ai/ha, scale 0 to 100, 0 no effect, 100 complete control, read-out: Plant response rating, Soybean): 95%
pest or weed control at 16 g/ha (barnyardgrass; Echinochloa crus-galli, pre-emergence, 16 g ai/ha, preemergence, scale 0 to 100 (0 no effect, 100 complete control), read-out: Barnyardgrass plant response rating): 90%
pest or weed control at 125 g/ha (barnyardgrass; Echinochloa crus-galli, pre-emergence, 125 g ai/ha, preemergence, scale 0 (no effect) to 100 (complete control), read-out: Barnyardgrass plant response rating): 100%
pest or weed control at 62 g/ha (barnyardgrass; Echinochloa crus-galli, pre-emergence, Preemergence, 62 g ai/ha, scale 0 to 100, 0 no effect, 100 complete control, read-out: Plant response rating, Barnyardgrass): 100%
pest or weed control at 16 g/ha (velvetleaf; Abutilon theophrasti, pre-emergence, 16 g ai/ha, preemergence, scale 0 to 100 (0 no effect, 100 complete control), read-out: Velvetleaf plant response rating): 80%
pest or weed control at 125 g/ha (velvetleaf; Abutilon theophrasti, pre-emergence, 125 g ai/ha, preemergence, scale 0 (no effect) to 100 (complete control), read-out: Velvetleaf plant response rating): 100%
pest or weed control at 62 g/ha (velvetleaf; Abutilon theophrasti, pre-emergence, Preemergence, 62 g ai/ha, scale 0 to 100, 0 no effect, 100 complete control, read-out: Plant response rating, Velvetleaf): 100%
pest or weed control at 16 g/ha (giant foxtail; Setaria faberi, pre-emergence, 16 g ai/ha, preemergence, scale 0 to 100 (0 no effect, 100 complete control), read-out: Foxtail, Giant plant response rating): 98%
pest or weed control at 125 g/ha (giant foxtail; Setaria faberi, pre-emergence, 125 g ai/ha, preemergence, scale 0 (no effect) to 100 (complete control), read-out: Foxtail, Giant plant response rating): 100%
pest or weed control at 62 g/ha (giant foxtail; Setaria faberi, pre-emergence, Preemergence, 62 g ai/ha, scale 0 to 100, 0 no effect, 100 complete control, read-out: Plant response rating, Foxtail, Giant): 100%

NC(=S)c1cccc(Oc2ncc(Cl)cn2)c1-n1cc(Cl)cn1 [Compound 292]
Ragweed plant response rating (ragweed; [1]): 25
Ragweed plant response rating (ragweed; [2]): 35
Ragweed plant response rating (ragweed; [3]): 70
Plant response rating, Ragweed (ragweed; [4]): 35
Blackgrass plant response rating (blackgrass; [1]): 0
Blackgrass plant response rating (blackgrass; [2]): 70
Blackgrass plant response rating (blackgrass; [3]): 90
Plant response rating, Blackgrass (blackgrass; [4]): 90
Pigweed plant response rating (pigweed; [1]): 100
Pigweed plant response rating (pigweed; [2]): 100
Pigweed plant response rating (pigweed; [3]): 100
Plant response rating, Pigweed (pigweed; [4]): 100
Waterhemp plant response rating (waterhemp; [1]): 100
Waterhemp plant response rating (waterhemp; [2]): 100
Waterhemp plant response rating (waterhemp; [3]): 100
Plant response rating, Waterhemp (waterhemp; [4]): 100
Lambsquarters plant response rating (lambsquarters; [1]): 35
Lambsquarters plant response rating (lambsquarters; [2]): 80
Lambsquarters plant response rating (lambsquarters; [3]): 100
Plant response rating, Lambsquarters (lambsquarters; [4]): 98
Morningglory plant response rating (morningglory; [1]): 25
Morningglory plant response rating (morningglory; [2]): 30
Morningglory plant response rating (morningglory; [3]): 70
Plant response rating, Morningglory (morningglory; [4]): 35
Crabgrass, Large plant response rating (large (Lg) crabgrass; [1]): 100
Crabgrass, Large plant response rating (large (Lg) crabgrass; [2]): 100
Crabgrass, Large plant response rating (large (Lg) crabgrass; [3]): 100
Plant response rating, Crabgrass, Large (large (Lg) crabgrass; [4]): 100
Oilseed Rape plant response rating (oilseed rape; [1]): 70
Oilseed Rape plant response rating (oilseed rape; [2]): 80
Oilseed Rape plant response rating (oilseed rape; [3]): 98
Plant response rating, Oilseed Rape (oilseed rape; [4]): 98
Galium plant response rating (galium; [1]): 80
Galium plant response rating (galium; [2]): 98
Galium plant response rating (galium; [3]): 100
Plant response rating, Galium (galium; [4]): 100
Soybean plant response rating (soybean; [1]): 5
Soybean plant response rating (soybean; [2]): 40
Soybean plant response rating (soybean; [3]): 90
Plant response rating, Soybean (soybean; [4]): 85
Barnyardgrass plant response rating (barnyardgrass; [1]): 0
Barnyardgrass plant response rating (barnyardgrass; [2]): 15
Barnyardgrass plant response rating (barnyardgrass; [3]): 100
Plant response rating, Barnyardgrass (barnyardgrass; [4]): 85
Velvetleaf plant response rating (velvetleaf; [1]): 15
Velvetleaf plant response rating (velvetleaf; [2]): 35
Velvetleaf plant response rating (velvetleaf; [3]): 100
Plant response rating, Velvetleaf (velvetleaf; [4]): 98
Foxtail, Giant plant response rating (giant foxtail; [1]): 45
Foxtail, Giant plant response rating (giant foxtail; [2]): 100
Foxtail, Giant plant response rating (giant foxtail; [3]): 100
Plant response rating, Foxtail, Giant (giant foxtail; [4]): 100
